These results are taken from US10357486B2, “Treatment of cognitive impairment with PDE4 inhibitor” (Universiteit Maastricht, priority 2013, dated 2019).

The assay relates to spatial memory in male C57BL/6NCrl mice. Description: Object Location Task (OLT), 24-hour retention interval. Format: in vivo. As to conditions: for d2 index, discrimination index between the new and familiar objects for T2: given 3 hours after T1, T2 after 24 h, mean (SEM). The text has this:
The objective of this study was to evaluate the cognitive improvement effects of Roflumilast on spatial memory employing Object Location Task (OLT) in male C57BL/6NCrl mice. Roflumilast was compared with data of the already established PDE4 inhibitor Rolipram in the same model.
Maintenance of Animals Twenty-four 7 month-old male C57BL/6NCrl mice (Charles River, L'Arbresle, France) were used (average body weights: 27.6 g). The animals were kept under a 12/12-hour light/dark cycle (lights on from 07.00 pm to 07.00 am) with free access to food and water. All testing was done between 09.00 am and maximally 06.00 pm.
Preparation of Compounds for Administration Both rolipram (Sigma-Aldrich St. Louis, USA; MW 275.34) and roflumilast (Biocrea, Radebeul, Germany; MW 403.21) were dissolved in dimethylsulfoxide (DMSO) and kept at 4 ° C.; this stock solution was used for further dilutions in 0.5% methylcellulose. Each of rolipram and roflumilast is used in form of its free base. All injected solutions consisted of 0.5% methylcellulose with a fixed DMSO percentages (1.2%) (vehicle).
Object Location Task Studies in Rodents For the Object Location Task (OLT), doses of 0.01 mg/kg, 0.03 mg/kg and 0.1 mg/kg of Rolipram or Roflumilast or vehicle were administered subcutaneously (s.c.). Based on previous findings, PDE4 inhibitor single administration was performed 3 hours after the first trial as this has an optimum effect on object memory performance. The injection volume was 5 μl/g.
The OLT apparatus consisted of a circular arena, 40 cm in diameter. Half of the 40 cm transparent polyvinyl chloride wall was covered from the outside with white paper. Two objects were placed symmetrically about 10 cm away from the wall on the separation line, between the transparent and covered side of the arena. Four different sets of objects were available: (1) a cone made of brass (maximal diameter 6 cm and total height 3.8 cm), (2) a transparent glass bottle (diameter 2.7 cm, height 8.5 cm) filled with sand and water, (3) a massive metal cube (2.5 cm×5 cm×7.5 cm) with two holes (diameter 1.5 cm), and (4) a massive aluminum cube with a tapering top (4.5 cm×4.5 cm×8.5 cm).
A testing session comprised two trials of 4 minutes. Before each trial, mice were placed in an empty Makrolon cage (incubation cage) for the same amount of time as the trial (4 min). During the first trial (T1), two identical objects were placed symmetrically about 10 cm away from the wall on the separation line between the transparent and covered side of the arena. After the first exploration period of 4 min, the mouse was put back in its home cage. Mice then received treatment at 3 hours post T1. Subsequently, after a predetermined delay interval (24h), the mouse was placed in the apparatus for the second trial of 4 min (T2). Two identical objects as in T1 were used; one object was placed in the previously used position, whereas the other was placed in a novel position. The novel position of the object could either be a fixed distance towards the front or a fixed distance towards the back of the arena for both objects. The times spent exploring each object during T1 and T2 were recorded manually using a personal computer. All objects and locations were used in a balanced manner to exclude possible object and/or location preferences. To avoid olfactory cues, the objects were thoroughly cleaned with 70% ethanol after each trial. The testing order of conditions was determined randomly.
Statistical Data Analysis The measurements reflected the time spent by the mice in exploring each object during T1 and T2. The time spent in exploring the two identical samples in T1 were represented by ‘a1’ and ‘a2’, respectively. The time spent in exploring the sample and the new object in T2 were represented by ‘a’ and ‘b’, respectively. From these exploration times the following variables were calculated: e1, e2, and d2 (Table 1). The d2 index is a relative measure of discrimination corrected for exploratory activity. […]

Entries after “also recorded” stand apart in the source; their conditions may differ. Marks after values point to notes of the source that are not given here.

As for `O=C(Nc1c(Cl)cncc1Cl)c1ccc(OC(F)F)c(OCC2CC2)c1` [roflumilast, N-(3,5-dichloropyridin-4-yl)-3-cyclopropylmethoxy-4-difluoromethoxybenzamide], the “d2 index, discrimination index between the new and familiar objects for T2” value reads like this: (0.01 mg/kg s.c.) 0.04 (0.05); (0.03 mg/kg s.c.) 0.34 (0.03) ###; (0.1 mg/kg s.c.) 0.00 (0.06). In addition, under “0.03 mg/kg s.c.”, the “d2 index compared with the vehicle condition (post-hoc Bonferroni t-test)” value is “differed significantly from the vehicle condition”. Also, for the setting “0.03 mg/kg s.c., after twenty-four hours”, the “d2 index compared with zero (one-sample t-test)” value was “significantly differed from zero”. Further, the “effect on spatial memory measured by the object location task test” value is given as “nearly no effect” (single subcutaneous administration of 0.01 mg/kg); “effective; also recorded: pronounced effect” (single subcutaneous administration of 0.03 mg/kg, 0.03 mg/kg); “completely no effect” (single subcutaneous administration of 0.1 mg/kg).
